Test results: patent US20080286350A1, “Formulation of Multivalent Antibody Constructs and Use of Same for Cancer Therapy” (BC CANCER AGENCY, priority 2004, published 2008)

How the values were obtained:
Format in all cases: cell-based
Ramos cells = test: MTT cell viability assay, Ramos cells, 48 hours (Example 1)
[1] = system: Ramos (Burkitt's lymphoma) cell line; test: Cell viability assay, fraction of cells affected (fa), Ramos
Procedure: (§1) FIGS. 5(a)-(d) are a series of bar graphs summarizing results for in vitro treatment of cancer cell lines with free bivalent or liposomal multivalent Ab constructs. […] Fraction of cells affected (fa) was calculated as follows: fa=1−fu, where fu was the fraction of remaining viable cells calculated as the ratio of the absorbance readings from the MTT assay for treated and untreated groups. Data represent mean ±S.E.M. from 3 independent experiments. * and ^# denote P<0.05 as compared to the free Ab treatment (ANOVA and Scheffe test for post-hoc comparisons).
(§2) Cells (3,500 cells/well for LCC6^HER2 and MCF7^HER2, and 20-50,000 cells/well for Ramos and 20,000 cells/well for Z-138) were seeded in 96-well plates. In the case of LCC6^HER2 and MCF7^HER2 cells, treatment was added after an overnight incubation to allow cell adherence to plates. In the case of Ramos and Z-138 cells, treatment was added on the same day after seeding. Cell viability was determined using 3-(4,5-dimethylthiazol-2-yl)-2,5-diphenyltetrazolium bromide (MTT) as previously described ^28 or Alamar Blue added in 10 μL/well with an 18-h incubation before reading fluorescence in a Fluorstar (v 1.2) plate reader (BMG Labtechnologies, Offenburg, Germany).
(§3) For rituximab, testing was conducted in a Burkitt's lymphoma cell line, Ramos (FIG. 5c), and a mantle cell lymphoma cell line, Z-138 (FIG. 5d).

Z-138 cells = test: Cell cycle analysis and DAPI staining, Z-138; conditions: 15 μg/mL, 3 days
Procedure: (§4) FIGS. 6(a)-6(b) are bar graphs and Western blot analyses showing modulation of cancer cell survival pathways by multivalent liposomal Ab constructs. […] The concentration of trastuzumab was 200 μg/mL. (b) Representative cell cycle analysis, DAPI staining and Western blot analyses of Z-138 cells after exposure to free or liposomal rituximab for 3 days. The concentration of rituximab was 15 μg/mL. […] For DAPI staining, yellow arrows indicate apoptotic morphology of DNA condensation or fragmentation associated with Z-138 cells exposed to various treatments. The scale bar is equivalent to 50 μm, and all images are shown at the same magnification.
Cells were harvested after treatment and fixed in cold 70% ethanol adjusted to 1×10^6 cells/mL and 2×10^6 cells/mL for cell cycle analyses and DAPI staining, respectively. In the case of cell cycle analyses, cells were stained in propidium iodide (PI) buffer [50 μg/mL PI, 1 mg/mL RNase A (Sigma), and 0.1% Triton X-100 in PBS] at 37° C. for 15 min as previously described ^28. Cells were then chilled on ice for 1 h and analyzed on a FACSCalibur flow cytometer (Becton Dickinson, San Jose, Calif.) with 20,000 events collected for each sample. In the case of DAPI staining, cells were incubated in DAPI staining solution (0.1 μg/mL DAPI, 1 mg/mL RNase A and 0.1% Triton X-100 in PBS) for 15 min, followed by chilling on ice for 30 min. Cells were cytospun onto a glass slide, and viewed with a Leica DMLB fluorescence microscope. Images were captured with a Retiga 1300i digital camera and analyzed by the computer software OpenLab 3.5.1 (Improvision).

[2] = system: phosphorylated p65NF-κB, Bcl-xL, Bcl-2, Bax, p-Akt; test: Western blot analyses of cell survival molecules, Z-138; conditions: 15 μg/mL, 3 days
Procedure: as §4
The following antibodies were used in this study: anti-p-HER2-Tyr-1248/Tyr-1173; anti-HER2; anti-p-Akt-Ser-473 and anti-Akt (all were rabbit polyclonal, New England Biolabs) and anti-human β-actin (mouse monoclonal, Sigma). The secondary antibody was horseradish peroxidase-conjugated anti-mouse or anti-rabbit IgG (Promega, Madison, Wis.). Proteins were detected by enhanced chemiluminescence (Amersham Pharmacia Biotech, Buckinghamshire, England), and visualized after exposure to Kodak autoradiography film. Equivalent amounts of protein (30 μg/lane determined by Bradford assay) were resolved by 12% SDS-polyacrylamide pre-made gels (Bio-Rad).

[3] = system: Z-138 (mantle cell lymphoma) cell line; test: Cell viability assay, fraction of cells affected (fa), Z-138
Procedure: as §1, §2, §3

caspase 3/7 = test: Caspase 3/7 activity, Z-138; conditions: Z-138 cells, data not shown
[4] = 3 days, 10% serum, range of Ab concentrations tested

Substance	potency / cytotoxic activity on cell viability (MTT assay), in words (Ramos cells)	apoptosis: percentage of cells in sub-G1/G0 phase, morphology (DAPI) (Z-138 cells)	expression levels of phosphorylated p65NF-κB and downstream Bcl-xL [2]	other results
Lipo-RTX 48: Rituximab bound to liposomes at antibody-to-lipid ratio of 48 μg antibody/μmol lipid	superior potency to free Rituximab	–	–	–
Lipo-RTX 59: Rituximab bound to liposomes at antibody-to-lipid ratio of 59 μg antibody/μmol lipid	superior potency to free Rituximab	–	–	–
cross-linked rituximab: Free rituximab cross-linked by an anti-human IgG F(ab)′ (goat F(ab′)2 anti-human IgG, 50 μg/mL), included as a control	–	increases	reduced	activity (fa) compared to liposomal rituximab, in words ([1]; Ab concentrations above 10 μg/mL, P<0.05): more effective than liposomal rituximab; expression level of p-Akt [2]: capable of reducing
free rituximab: a therapeutic antibody targeting CD20; anti CD20 monoclonal antibody	minimal or no cytotoxic activity	not different from untreated cells	not different from untreated cells	–
liposomal rituximab: rituximab conjugated to DSPC/CHOL/DSPE-PEG2000/DSPE-PEG2000-MAL liposomes, Ab-to-lipid ratio 50-70 μg/μmol	–	increases	reduced	activity (fa) compared to free rituximab, in words [1, 4]: significantly more effective than the free, bivalent form; activity (fa) compared to free rituximab, in words [3, 4]: significantly more effective than the free, bivalent form; activity (fa) compared to cross-linked rituximab, in words ([3]; P>0.05): not significantly different from that of cross-linked rituximab; increase in caspase 3/7 activity (caspase 3/7): not
